Data from US20220024906A1, “COMPOUNDS AND COMPOSITIONS FOR TREATING CONDITIONS ASSOCIATED WITH STING ACTIVITY” (IFM Due, Inc., priority 2020, published 2022).

Molecular target: T1, hSTING (Homo sapiens, UniProt Q86WV6, G230A/H232R/R293Q/R71H)
T1 construct: host or cells: THP1-Dual KO-IFNAR2 cells
Experiment: STING reporter assay (luciferase) in THP1-Dual KO-IFNAR2 cells stimulated with 2′3′cGAMP
Type: cell-based
Details: 15 μM 2′3′cGAMP transfected, 24 h, luciferase reporter activity
Protocol: STING pathway activation by the compounds described herein was measured using THP1-Dual™ cells (KO-IFNAR2).
THP1-Dual™ KO-IFNAR2 Cells (obtained from invivogen) were maintained in RPMI, 10% FCS, 5 ml P/S, 2 mM L-glut, 10 mM Hepes, and 1 mM sodium pyruvate. Compounds were spotted in empty 384 well tissue culture plates (Greiner 781182) by Echo for a final concentration of 0.0017-100 μM. Cells were plated into the TC plates at 40 μL per well, 2×10E6 cells/mL. For activation with STING ligand, 2′3′cGAMP (MW 718.38, obtained from Invivogen), was prepared in Optimem media.
The following solutions were prepared for each 1×384 plate: • Solution A: 2 mL Optimem with one of the following stimuli: • 60 μL of 10 mM 2′3′cGAMP→150 μM stock • Solution B: 2 mL Optimem with 60 μL Lipofectamine 2000→Incubate 5 min at RT
2 mL of solution A and 2 ml Solution B was mixed and incubated for 20 min at room temperature (RT). 20 μL of transfection solution (A+B) was added on top of the plated cells, with a final 2′3′cGAMP concentration of 15 μM. The plates were then centrifuged immediately at 340 g for 1 minute, after which they were incubated at 37° C., 5% CO2, >98% humidity for 24 h. Luciferase reporter activity was then measured. EC50 values were calculated by using standard methods known in the art.
Luciferase reporter assay: 10 μL of supernatant from the assay was transferred to white 384-plate with flat bottom and squared wells. One pouch of QUANTI-Luc™ Plus was dissolved in 25 mL of water. 100 μL of QLC Stabilizer per 25 mL of QUANTI-Luc™ Plus solution was added. 50 μL of QUANTI-Luc™ Plus/QLC solution per well was then added. Luminescence was measured on a Platereader (e.g., Spectramax I3X (Molecular Devices GF3637001)).
Luciferase reporter activity was then measured. EC50 values were calculated by using standard methods known in the art.

T1 sequence (Q86WV6 whole entry R71H/G230A/H232R/R293Q): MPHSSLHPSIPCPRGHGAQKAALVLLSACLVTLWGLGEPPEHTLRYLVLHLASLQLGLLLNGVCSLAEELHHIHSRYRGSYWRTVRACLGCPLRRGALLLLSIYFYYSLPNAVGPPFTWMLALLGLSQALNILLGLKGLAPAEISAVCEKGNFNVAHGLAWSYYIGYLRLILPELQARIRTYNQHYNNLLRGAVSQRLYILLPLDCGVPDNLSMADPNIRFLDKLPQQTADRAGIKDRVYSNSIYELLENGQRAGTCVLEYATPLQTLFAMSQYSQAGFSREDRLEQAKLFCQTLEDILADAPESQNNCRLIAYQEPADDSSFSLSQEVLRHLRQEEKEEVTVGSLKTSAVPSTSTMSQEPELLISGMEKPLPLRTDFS

Row | Structure (SMILES) | EC50 [nM]
1 | O=C(CCc1cncc(C(F)(F)F)c1)Nc1c[nH]c2cc(F)c(F)cc12 [Compound 119, N-(5,6-difluoro-1H-indol-3-yl)-3-(5-(trifluoromethyl)pyridin-3-yl)propanamide] | 1000 to 5000
2 | O=C(CCN1CCOC1=O)Nc1c[nH]c2ccc(-c3cnn(-c4ccc(C(F)(F)F)cc4)c3)cc12 [Compound 167, 3-(2-oxooxazolidin-3-yl)-N-(5-(1-(4-(trifluoromethyl)phenyl)-1H-pyrazol-4-yl)-1H-indol-3-yl)propanamide] | 200 to 1000
3 | O=C(Nc1c[nH]c2cc(F)c(F)cc12)C1CCN(S(=O)(=O)c2ccc(F)cc2)C1 (centres unmarked) [Compound 111, N-(5,6-difluoro-1H-indol-3-yl)-1-((4-fluorophenyl)sulfonyl)pyrrolidine-3-carboxamide] | 1000 to 5000
4 | C[C@H](NC1CCCCC1)C(=O)Nc1c[nH]c2cc(F)c(F)cc12 [Compound 113, (S)-2-(cyclohexylamino)-N-(5,6-difluoro-1H-indol-3-yl)propanamide] | 5000 to 100000
5 | CCOc1cccc(/C=C/C(=O)Nc2c[nH]c3cc(F)c(F)cc23)c1 [Compound 128, (E)-N-(5,6-difluoro-1H-indol-3-yl)-3-(3-ethoxyphenyl)acrylamide] | 200 to 1000
6 | O=C(CCn1cncn1)Nc1c[nH]c2ccc(-c3cnn(-c4ccc(C(F)(F)F)cc4)c3)cc12 [Compound 159, 3-(1H-1,2,4-triazol-1-yl)-N-(5-(1-(4-(trifluoromethyl)phenyl)-1H-pyrazol-4-yl)-1H-indol-3-yl)propanamide] | 200 to 1000
7 | O=C(CCn1cccn1)Nc1c[nH]c2ccc(-c3cnn(-c4ccc(C(F)(F)F)cc4)c3)cc12 [Compound 143, 3-(1H-pyrazol-1-yl)-N-(5-(1-(4-(trifluoromethyl)phenyl)-1H-pyrazol-4-yl)-1H-indol-3-yl)propanamide] | 200 to 1000
8 | O=C(Nc1c[nH]c2ccc(-c3cnn(-c4ccc(C(F)(F)F)cc4)c3)cc12)C(O)c1ccccc1 (centres unmarked) [Compound 154, 2-hydroxy-2-phenyl-N-(5-(1-(4-(trifluoromethyl)phenyl)-1H-pyrazol-4-yl)-1H-indol-3-yl)acetamide] | 1000 to 5000
9 | O=C(CN1CCOC1=O)Nc1c[nH]c2ccc(-c3cnn(-c4ccc(C(F)(F)F)cc4)c3)cc12 [Compound 161, 2-(2-oxooxazolidin-3-yl)-N-(5-(1-(4-(trifluoromethyl)phenyl)-1H-pyrazol-4-yl)-1H-indol-3-yl)acetamide] | 200 to 1000
10 | COc1ccc(/C=C(\C)C(=O)Nc2c[nH]c3cc(F)c(F)cc23)cc1 [Compound 110, (E)-N-(5,6-difluoro-1H-indol-3-yl)-3-(4-methoxyphenyl)-2-methylacrylamide] | 200 to 1000
11 | Cc1nnc(CC(=O)Nc2c[nH]c3ccc(-c4cnn(-c5ccc(C(F)(F)F)cc5)c4)cc23)o1 [Compound 138, 2-(5-methyl-1,3,4-oxadiazol-2-yl)-N-(5-(1-(4-(trifluoromethyl)phenyl)-1H-pyrazol-4-yl)-1H-indol-3-yl)acetamide] | 200 to 1000
12 | O=C(CCN1CCCC1=O)Nc1c[nH]c2ccc(-c3cnn(-c4ccc(C(F)(F)F)cc4)c3)cc12 [Compound 155, 3-(2-oxopyrrolidin-1-yl)-N-(5-(1-(4-(trifluoromethyl)phenyl)-1H-pyrazol-4-yl)-1H-indol-3-yl)propanamide] | 200 to 1000
13 | O=C(Cc1cccc(OC(F)F)c1)Nc1c[nH]c2cc(F)c(F)cc12 [Compound 127, N-(5,6-difluoro-1H-indol-3-yl)-2-(3-(difluoromethoxy)phenyl)acetamide] | 5000 to 100000
14 | O=C(Cn1cncn1)Nc1c[nH]c2ccc(-c3cnn(-c4ccc(C(F)(F)F)cc4)c3)cc12 [Compound 164, 2-(1H-1,2,4-triazol-1-yl)-N-(5-(1-(4-(trifluoromethyl)phenyl)-1H-pyrazol-4-yl)-1H-indol-3yl)acetamide] | 1000 to 5000
15 | N#Cc1cc(CC(=O)Nc2c[nH]c3cc(F)c(F)cc23)ccn1 [Compound 107, 2-(2-cyanopyridin-4-yl)-N-(5,6-difluoro-1H-indol-3-yl)acetamide] | 1000 to 5000
16 | Cc1cc(CC(=O)Nc2c[nH]c3ccc(-c4cnn(-c5ccc(C(F)(F)F)cc5)c4)cc23)on1 [Compound 144, 2-(3-methylisoxazol-5-yl)-N-(5-(1-(4-(trifluoromethyl)phenyl)-1H-pyrazol-4-yl)-1H-indol-3-yl)acetamide] | 200 to 1000
17 | COc1ccc(CC(=O)Nc2c[nH]c3cc(F)c(F)cc23)cc1C(F)(F)F [Compound 132, N-(5,6-difluoro-1H-indol-3-yl)-2-(4-methoxy-3-(trifluoromethyl)phenyl)acetamide] | 5000 to 100000
18 | O=C(CCc1ncccn1)Nc1c[nH]c2ccc(-c3cnn(-c4ccc(C(F)(F)F)cc4)c3)cc12 [Compound 147, 3-(pyrimidin-2-yl)-N-(5-(1-(4-(trifluoromethyl)phenyl)-1H-pyrazol-4-yl)-1H-indol-3-yl)propanamide] | 200 to 1000
19 | Cc1noc(C)c1CC(=O)Nc1c[nH]c2ccc(-c3cnn(-c4ccc(C(F)(F)F)cc4)c3)cc12 [Compound 160, 2-(3,5-dimethylisoxazol-4-yl)-N-(5-(1-(4-(trifluoromethyl)phenyl)-1H-pyrazol-4-yl)-1H-indol-3-yl)acetamide] | 1000 to 5000
20 | Cc1nc(CC(=O)Nc2c[nH]c3ccc(-c4cnn(-c5ccc(C(F)(F)F)cc5)c4)cc23)n[nH]1 [Compound 150, 2-(5-methyl-1H-1,2,4-triazol-3-yl)-N-(5-(1-(4-(trifluoromethyl)phenyl)-1H-pyrazol-4-yl)-1H-indol-3-yl)acetamide] | 1000 to 5000
21 | CC(Oc1ccc(C(F)(F)F)cc1)C(=O)Nc1c[nH]c2cc(F)c(F)cc12 (centres unmarked) [Compound 131, N-(5,6-difluoro-1H-indol-3-yl)-2-(4-(trifluoromethyl)phenoxy)propanamide] | 1000 to 5000
22 | CC(C)(Oc1ccccc1)C(=O)Nc1c[nH]c2cc(F)c(F)cc12 [Compound 102, N-(5,6-difluoro-1H-indol-3-yl)-2-methyl-2-phenoxypropanamide] | 5000 to 100000
23 | N#Cc1cccc(/C=C/C(=O)Nc2c[nH]c3cc(F)c(F)cc23)c1 [Compound 135, (E)-3-(3-cyanophenyl)-N-(5,6-difluoro-1H-indol-3-yl)acrylamide] | 200 to 1000
24 | O=C(CC1CC(F)(F)C1)Nc1c[nH]c2ccc(-c3cnn(-c4ccc(C(F)(F)F)cc4)c3)cc12 [Compound 157, 2-(3,3-difluorocyclobutyl)-N-(5-(1-(4-(trifluoromethyl)phenyl)-1H-pyrazol-4-yl)-1H-indol-3-yl)acetamide] | 200 to 1000
25 | O=C(Nc1c[nH]c2cc(F)c(F)cc12)C1CN(Cc2ccccc2)CCO1 (centres unmarked) [Compound 118, 4-benzyl-N-(5,6-difluoro-1H-indol-3-yl)morpholine-2-carboxamide] | 1000 to 5000
26 | COC1(CC(=O)Nc2c[nH]c3ccc(-c4cnn(-c5ccc(C(F)(F)F)cc5)c4)cc23)CCC1 [Compound 163, 2-(1-methoxycyclobutyl)-N-(5-(1-(4-(trifluoromethyl)phenyl)-1H-pyrazol-4-yl)-1H-indol-3-yl)acetamide] | 200 to 1000
27 | O=C(Cc1cnc(N2CCC(F)(F)CC2)c(Cl)c1)Nc1c[nH]c2ccc(Br)cc12 [Compound 101, N-(5-bromo-1H-indol-3-yl)-2-(5-chloro-6-(4,4-difluoropiperidin-1-yl)pyridin-3-yl)acetamide] | 200 to 1000
28 | O=C(CCc1ccc(OC(F)(F)F)cc1)Nc1c[nH]c2cc(F)c(F)cc12 [Compound 104, N-(5,6-difluoro-1H-indol-3-yl)-3-(4-(trifluoromethoxy)phenyl)propanamide] | 200 to 1000
29 | O=C(CS(=O)(=O)C1CC1)Nc1c[nH]c2ccc(-c3cnn(-c4ccc(C(F)(F)F)cc4)c3)cc12 [Compound 158, 2-(cyclopropylsulfonyl)-N-(5-(1-(4-(trifluoromethyl)phenyl)-1H-pyrazol-4-yl)-1H-indol-3-yl)acetamide] | 200 to 1000
